According to patent publication US20130184302A1, “METHODS FOR TREATING IRRITABLE BOWEL SYNDROME (IBS) AND INFECTIONS” (priority 2011, published 2013):

Legend:
[1] = system: patients with diarrhea-predominant IBS; test: IBS-QOL questionnaire, rifaximin 550 mg BID vs placebo in d-IBS; type: in vivo, human
Experimental: Both groups received placebo for an additional 14 days after the initial 2-week treatment. Quality of life was assessed with the 34-item IBS-QOL questionnaire at baseline and 4 weeks after initiating treatment. Each item was scored on a 5-point scale (1=not at all; 2=slightly; 3=moderately; 4=quite a bit; and 5=extremely or a great deal). Results for composite and subscale scores were converted to a scale ranging from 0 to 100, with higher scores indicating better QOL.
Following a 2-week initial treatment period, both groups of patients received placebo for an additional 14 days. Quality of life was assessed via the 34-item IBS-QOL questionnaire at baseline and 4 weeks after initiating treatment. Each item was scored on a 5-point scale (1=not at all; 2=slightly; 3=moderately; 4=quite a bit; 5=extremely or a great deal); results for composite and subscale scores were converted to a scale ranging from 0 to 100, with higher scores indicating better QOL.

[2] = system: patients with cirrhosis and overt HE episodes; test: Rates of commonly-occurring infections and antibiotic use in cirrhotic patients with HE on long-term rifaximin; type: in vivo
Text: Cirrhosis patients can have an increased risk of infections and subsequent hospitalizations, leading to increased mortality. […] A description of the OLM and RCT can be found in WO 2011/005388, “METHODS OF TREATING HEPATIC ENCEPHALOPATHY,” which is incorporated herein by reference in its entirety. In the analysis below, the effect of long term RFX treatment on infection rates and antibiotic use was examined.
Patients with cirrhosis and ≧2 overt HE episodes within 12 months were enrolled in the RCT (RFX=140; placebo [PBO]=159); 170 new patients, in addition to 70 RFX and 82 PBO patients who rolled over from the RCT were enrolled in OLM. The “All RFX group” (n=392) consisted of RFX-treated patients in both studies. Infection rates per person exposure years (PEY) were compared across RCT and All RFX groups, and antibiotic use over time was examined.
In the 6 month RCT, RFX exposure was 50 PEY vs 46 PEY in the PBO group. Long term RFX exposure was for median =427 (2-1427) days, or 510 PEY.

[3] = system: patients with non-constipation IBS (non-C IBS); test: Adverse events and discontinuation, rifaximin 550 mg TID study; type: in vivo, human; conditions: 550 mg rifaximin TID
[4] = system: C. difficile infection (CDI); test: CDI trial: recurrence of CDI, recurrence rate per person-year; type: in vivo, human
Text: Recurrence was defined to be a diarrhea and a positive C. diff stool toxin assay that occurred after initial clinical success.

[5] = system: C. difficile infection (CDI); test: CDI trial: global cure of diarrhea; type: in vivo, human
Text: Subjects having a global cure of diarrhea are set for the in Table 45. Global cure of diarrhea was defined as subjects who were cured of diarrhea at TOC without recurrence at follow up.

[6] = system: subjects with IBS; test: Analysis of two studies after 3 months: global IBS symptoms, abdominal pain, bloating responders; type: in vivo, human; conditions: for Responders: Abdominal pain reduction of 1 point in median: at least 2 weeks during PEP; for Global IBS symptoms: at least 2 out of 4 weeks adequate relief during weeks 3 through 6 (weekly question): 550 mg TID 14 days
Text: A measure of efficacy is based on subjects' answers to the Weekly Subject Global Assessment (SGA) questions over the study duration in relation to their IBS symptoms.
The study endpoints of the studies were Global IBS symptoms and AUC in abdominal pain during the study.
The primary and secondary endpoints evaluated in this study were the effect of treatment on the percentage of subjects who reported adequate relief of Global IBS symptoms, reduction in abdominal pain and the adequate relief of IBS symptom of bloating.

[7] = system: subjects with d-IBS; test: Adequate relief of IBS symptoms and bloating (weekly yes/no questions), rifaximin BID study in d-IBS; type: in vivo, human; conditions: aIBS
[8] = Rifaximin N = 117, Vancomycin N = 115
[9] = after initial clinical success, Rifaximin N = 67, Vancomycin N = 73
[10] = all subjects, Rifaximin N = 117, Vancomycin N = 115
[11] = cured of diarrhea at TOC without recurrence at follow up, Rifaximin N = 117, Vancomycin N = 115

SMILES: CO[C@H]1/C=C/O[C@@]2(C)Oc3c(C)c(O)c4c(O)c(c5c(nc6cc(C)ccn65)c4c3C2=O)NC(=O)/C(C)=C\C=C\[C@H](C)[C@H](O)[C@@H](C)[C@@H](O)[C@@H](C)[C@H](OC(C)=O)[C@@H]1C [Rifaximin, (2S,16Z,18E,20S,21S,22R, 23R,24R,25S,26S,27S,28E)-5,6,21,23,25 Pentahydroxy-27-methoxy-2,4,11,16,20,22,24,26-octamethyl-2,7-(epoxypentadeca-(1,11,13)trienimino) benzofuro (4,5-e) pyrido(1,2,-a) benzimidazole-1,15(2H)-dione,25-acetate]
- Mean Change From Baseline in IBS-QOL Scores at Week 4: Body image ([1]; Rifaximin 1100 mg/d (n = 191)): 20.1
- Mean Change From Baseline in IBS-QOL Scores at Week 4: Dysphoria ([1]; Rifaximin 1100 mg/d (n = 191)): 24.8
- Mean Change From Baseline in IBS-QOL Scores at Week 4: Food avoidance ([1]; Rifaximin 1100 mg/d (n = 191)): 25.0
- Mean Change From Baseline in IBS-QOL Scores at Week 4: Health worry ([1]; Rifaximin 1100 mg/d (n = 191)): 16.0
- Mean Change From Baseline in IBS-QOL Scores at Week 4: Interference with activity ([1]; Rifaximin 1100 mg/d (n = 191)): 22.2
- Mean Change From Baseline in IBS-QOL Scores at Week 4: Relationship ([1]; Rifaximin 1100 mg/d (n = 191)): 14.9
- Mean Change From Baseline in IBS-QOL Scores at Week 4: Sexual ([1]; Rifaximin 1100 mg/d (n = 191)): 13.6
- Mean Change From Baseline in IBS-QOL Scores at Week 4: Social reaction ([1]; Rifaximin 1100 mg/d (n = 191)): 17.3
- Mean Change From Baseline in IBS-QOL Scores at Week 4: Overall score ([1]; Rifaximin 1100 mg/d (n = 191), scale 0 to 100): 20.4
- Improvement with rifaximin over placebo, IBS-QOL: Body image ([1]; Week 4, 1100 mg/d): 37.4%
- Improvement with rifaximin over placebo, IBS-QOL: Dysphoria ([1]; Week 4, 1100 mg/d): 25.3%
- Improvement with rifaximin over placebo, IBS-QOL: Food avoidance ([1]; Week 4, 1100 mg/d): 22.1%
- Improvement with rifaximin over placebo, IBS-QOL: Health worry ([1]; Week 4, 1100 mg/d): 30.6%
- Improvement with rifaximin over placebo, IBS-QOL: Interference with activity ([1]; Week 4, 1100 mg/d): 22.2%
- Improvement with rifaximin over placebo, IBS-QOL: Overall score ([1]; Week 4, 1100 mg/d): 28.7%
- Improvement with rifaximin over placebo, IBS-QOL: Relationship ([1]; Week 4, 1100 mg/d): 39.5%
- Improvement with rifaximin over placebo, IBS-QOL: Sexual ([1]; Week 4, 1100 mg/d): 24.9%
- Improvement with rifaximin over placebo, IBS-QOL: Social reaction ([1]; Week 4, 1100 mg/d): 31.6%
- C. difficile infection, rate ([2]; All RFX Patients (n = 392), PEY = 510): (0.012) number of subjects/PEY
- C. difficile infection, rate ([2]; RCT Patients, RFX (n = 140), PEY = 50): (0.040) number of subjects/PEY
- Any infection, rate ([2]; human, in vivo): (0.072) number of subjects/PEY
- Subjects with skin or subcutaneous tissue disorders [3]: 1.3%
- Recurrence Rate per Person-Year Exposure [4, 8]: 0.613
- Recurrence of CDI: Treatment Difference ([4]; Rifaximin vs Vancomycin, subjects with initial clinical success): 4.7%
- No Recurrence of CDI, number of subjects [4, 9]: 61
- No Recurrence of CDI, percent of subjects [4, 9]: (91%)
- Recurrence of CDI, number of subjects [4, 9]: 6
- Recurrence of CDI, percent of subjects [4, 9]: (9%)
- Recurrence: No, number of subjects [4, 10]: 111
- Recurrence: No, percent of subjects [4, 10]: (95%)
- Recurrence: Yes, number of subjects [4, 10]: 6
- Recurrence: Yes, percent of subjects [4, 10]: (5%)
- Global Cure of Diarrhea: No, number of subjects [5, 8]: 34
- Global Cure of Diarrhea: No, percent of subjects [5, 8]: (29%)
- Global Cure of Diarrhea: Treatment Difference ([5]; Rifaximin vs Vancomycin): −3.0%
- Global Cure of Diarrhea: Yes, number of subjects [5, 11]: 83
- Global Cure of Diarrhea: Yes, percent of subjects [5, 11]: (71%)
- IBS symptom of Bloating: at least 2 out of 4 weeks adequate relief during weeks 3 through 6 ([6]; Combined): 30% vs 40%
- Responders: Abdominal Pain reduction of 2 point in mean ([6]; Combined): 18% vs 25%
- Responders: Abdominal Pain reduction of 2 point in median ([6]; Combined): 32% vs 39%
- Responders: Abdominal Pain reduction of 3 point in mean ([6]; Combined): 6% vs 7%
- Responders: Abdominal Pain reduction of 3 point in median ([6]; Combined): 18% vs 21%
- Responders: Abdominal pain reduction of 1 point in mean ([6]; Combined): 42% vs 52%
- Responders: Daily abdominal pain <2 ([6]; Combined): 31% vs 39%
- Responders: Overall reduction of mean weekly abdominal pain by > = 25% ([6]; Combined): 47% vs 57%
- Responders: Overall reduction of mean weekly abdominal pain by > = 50% ([6]; Combined): 28% vs 35%
- Responders: Overall reduction of mean weekly abdominal pain by > = 75% ([6]; Combined): 11% vs 14%
- Responders: Overall reduction of median weekly abdominal pain by > = 25% ([6]; Combined): 52% vs 62%
- Responders: Overall reduction of median weekly abdominal pain by > = 50% ([6]; Combined): 34% vs 44%
- Responders: Overall reduction of median weekly abdominal pain by > = 75% ([6]; Combined): 18% vs 21%
- Responders: Abdominal pain reduction of 1 point in median ([6]; Combined): 53% vs 63%
- IBS symptom of Bloating: at least 2 out of 4 weeks adequate relief during weeks 3 through 6 ([6]; Study 2): 32% vs 41%
- Responders: Abdominal Pain reduction of 2 point in mean ([6]; Study 2): 18% vs 25%
- Responders: Abdominal Pain reduction of 2 point in median ([6]; Study 2): 30% vs 41%
- Responders: Abdominal Pain reduction of 3 point in mean ([6]; Study 2): 6% vs 7%
- Responders: Abdominal Pain reduction of 3 point in median ([6]; Study 2): 17% vs 21%
- Responders: Abdominal pain reduction of 1 point in mean ([6]; Study 2): 43% vs 52%
- Responders: Daily abdominal pain <2 ([6]; Study 2): 31% vs 39%
- Responders: Overall reduction of mean weekly abdominal pain by > = 25% ([6]; Study 2): 47% vs 58%
- Responders: Overall reduction of mean weekly abdominal pain by > = 50% ([6]; Study 2): 29% vs 35%
- Responders: Overall reduction of mean weekly abdominal pain by > = 75% ([6]; Study 2): 11% vs 14%
- Responders: Overall reduction of median weekly abdominal pain by > = 25% ([6]; Study 2): 52% vs 62%
- Responders: Overall reduction of median weekly abdominal pain by > = 50% ([6]; Study 2): 35% vs 44%
- Responders: Overall reduction of median weekly abdominal pain by > = 75% ([6]; Study 2): 17% vs 20%
- Responders: Abdominal pain reduction of 1 point in median ([6]; Study 2): 53% vs 62%
- IBS symptom of Bloating: at least 2 out of 4 weeks adequate relief during weeks 3 through 6 ([6]; Study [1]): 29% vs 40%
- Responders: Abdominal Pain reduction of 2 point in mean ([6]; Study [1]): 18% vs 26%
- Responders: Abdominal Pain reduction of 2 point in median ([6]; Study [1]): 33% vs 37%
- Responders: Abdominal Pain reduction of 3 point in mean ([6]; Study [1]): 6% vs 7%
- Responders: Abdominal Pain reduction of 3 point in median ([6]; Study [1]): 19% vs 22%
- Responders: Abdominal pain reduction of 1 point in mean ([6]; Study [1]): 41% vs 52%
- Responders: Overall reduction of mean weekly abdominal pain by > = 25% ([6]; Study [1]): 47% vs 56%
- Responders: Overall reduction of mean weekly abdominal pain by > = 50% ([6]; Study [1]): 28% vs 36%
- Responders: Overall reduction of mean weekly abdominal pain by > = 75% ([6]; Study [1]): 10% vs 14%
- Responders: Overall reduction of median weekly abdominal pain by > = 25% ([6]; Study [1]): 52% vs 63%
- Responders: Overall reduction of median weekly abdominal pain by > = 50% ([6]; Study [1]): 34% vs 44%
- Responders: Overall reduction of median weekly abdominal pain by > = 75% ([6]; Study [1]): 19% vs 23%
- Responders: Abdominal pain reduction of 1 point in median ([6]; Study [1]): 52% vs 63%
- Responders: Daily abdominal pain <2 ([6]; Study [1], at least 50% of days in a week for at least 2 weeks during PEP): 32% vs 40%
- Global IBS symptoms: at least 2 out of 4 weeks adequate relief during weeks 3 through 6 (weekly question) ([6]; first column (Study 1), second figure of 'x vs y'): 41%
- Global IBS symptoms: at least 2 out of 4 weeks adequate relief during weeks 3 through 6 (weekly question) ([6]; second column (Study 2)): 41%
- Global IBS symptoms: at least 2 out of 4 weeks adequate relief during weeks 3 through 6 (weekly question) ([6]; third column (Combined)): 41%
- Treatment effect, Bloating [7]: 31.4%*, 31.4%
